For data set [1], the target named is T1, HIV-1 reverse transcriptase (Human immunodeficiency virus type 1 group M subtype B, UniProt P04585).
T1 construct: fixed-time assay for HIV-1 reverse transcriptase RNA dependent DNA polymerase activity; RT was purchased from Calbiochem; purchased Calbiochem CAL382129-500
The data set is described as follows: HIV-1 in vitro reverse transcriptase activity (fixed-time RNA dependent DNA polymerase assay). The class given is biochemical. As to conditions: residual RT activity, compound at 10 μM; RT activity without compound set at 100%. The method, then:
For the in vitro inhibition studies of the HIV-1 reverse transcriptase activity, stock solutions of the compounds of the present invention were prepared in dimethyl sulfoxide at a final concentration of 10 mM and kept at room temperature. Nevirapine was purchased from Boehringer Ingelheim. Efavirenz was received from the NIH AIDS Research and Reference Reagent Program.
In vitro inhibition studies used a fixed-time assay for HIV-1 reverse transcriptase RNA dependent DNA polymerase activity. RT was purchased from Calbiochem (ref CAL382129-500). One unit of RT corresponds to the amount of enzyme which incorporates one nanomole of [^3H]TTP in 10 minutes at 37° C.
Assays were performed in a final volume of 50 μl. […] Reaction mixtures were incubated at 37° C. for 10 min. The incorporation rate was determined by a standard trichloroacetic acid precipitation procedure (adapted from Current protocols in molecular biology. Eds Wiley, MGH Harvard medical school) and liquid scintillation counting using a Wallac scintillation counter.
The in vitro activity of the compounds, at a final concentration of 10 μM, on the reverse transcriptase (RT) activity of HIV-1 is derivable from the relative (%) reduction in RT activity. Hereby, the RT activity in the absence of any of the compounds is set at 100%.

Data set [2] relates to HIV-1 with WT (wild type) RT in P4 cells. The data set is described as follows: Anti-HIV assay on P4 cell line, WT RT. Format: cell-based. The method, then: (§1) For the antiviral and the cytotoxicity assays, the drugs were diluted in complete DMEM medium. In these experiments, drugs were diluted in triplicate wells in a 96-well plate in six, 5 fold serial dilutions.
Two days later, co-cultivation with SupT1 cells (a human T-cell lymphoma cell line) was initiated to facilitate rapid production of progeny virions. Production of virus was measured by using the Innotest HIV Antigen mAb p24 kit (Innogenetics). At the peak of production cultures were harvested and filtered. The virus stocks were stored at −80° C. until used.
Anti-HIV activity and cytotoxicity of the compounds were tested on a P4 cell line. […] The P4 cells were cultured in complete DMEM medium supplemented with 10% fetal bovine serum (FBS), 0.5% of Penicillin/Streptomycin and G418 at 0.5 mg/ml. Exponentially growing cells were trypsinized, centrifuged and split twice weekly at 5.10^4 cells/ml.
The P4 cells are HIV-infectible Hela-CD4 cells that carry the bacterial lacZ gene under the control of the HIV-1 long terminal repeat (LTR). In this cell line, transcription of the LacZ gene is driven by the HIV-1 LTR. […] In other words, in this system, the expression level of the β-galactosidase gene is proportional to the viral replication.
(§2) Briefly, in the anti-HIV assay 100 Ål of P4 cells were plated in 96-well plate at a concentration of 0.4 10^5 cells/ml and incubated at 37° C., 5% CO2. After 48 h, the medium was removed and 100 Ål of the different drugs dilutions were added to the cells. Four hours after the addition of the drugs all cells were infected with equal amount of cell-free virus, corresponding to 100 ng of HIV p24 antigen. After 48 h of incubation at 37° C., 5% CO2, β-galactosidase activity was measured using chlorophenol red-β-D-galactopyranoside assays.
Each assay was performed a minimum of three times. The 50% effective concentration (Ec50) was calculated from each dose response curve using the CurveExpert 1.3 software.

In the next data set the test system is P4 cells. The data set is described as follows: Cytotoxicity (CC50), MTT assay on P4 cells. The class given is cell-based. As to conditions: 3 days. The protocol:
as §1
(§3) The 50% cytotoxic concentration (CCso) was determined using a protocol adapted from Pauwels et al. (1988. J. Virol. Methods 20(4):309-21). Briefly, flat bottom 96-well plates were filled with 50 μl of complete medium containing 5.10^3 P4 cells. 2 hours later 50 μl of drug solution were added to the cells. Drugs (dissolved in DMEM, see above) were diluted in six, 5-fold serial dilutions from stock solutions in triplicate wells of a 96-well plate. Cells and compounds were incubated at 37° C. in growth medium for 3 days. Cell viability was determined by MTT assays using the Roche Cell Proliferation KIT. The absorbance (λ=570 nm) was measured on a Benchmark™ Microplate Reader (Biorad) and compared with 12 cell control replicates (no drug added). Each assay was performed at least three times for a total of at least nine replicate wells. This method detects both cytostatic and cytolytic effects of drugs.

A short description of data set [3]: Cytotoxicity (CC50), MTT assay on P4 cells. Format: cell-based. As to conditions: human. The protocol:
as §1, §3
In general terms: Tetrazolium dyes change colour on reduction, which living cells bring about.

The subject of data set [4] is HIV-1 mutant Cys188RT in P4 cells. The data set is described as follows: Anti-HIV assay on P4 cells, Cys188RT mutant. The class given is cell-based.
Excerpt: In order to introduce mutation(s) at the level of the pol gene coding for the RT in the pNL4-3 plasmid containing the complete viral genome (Adachi et al., 1986. J. Virol., Vol. 59 p 284-291) we used the “Quick change mutagenesis kit” (Stratagene). The following mutations were separately introduced in pNL4-3: L100I, K103N, V108I, Y181C, Y188C, and the double mutations K103N/V108I. These mutations were chosen because of the resistance that they confer to existing NNRTI. The production procedure of the mutant viral stocks is identical to the one described above.
Anti-HIV activity and cytotoxicity of the compounds were tested on a P4 cell line. The P4 cell line (Clavel & Charneau, 1994. J. Virol., Vol. 68 p 1179-1185) was provided by Dr. François Clavel (Unité de recherche antivirale de l'hôpital Xavier Bichat Paris: Inserm). The P4 cells were cultured in complete DMEM medium supplemented with 10% fetal bovine serum (FBS), 0.5% of Penicillin/Streptomycin and G418 at 0.5 mg/ml. Exponentially growing cells were trypsinized, centrifuged and split twice weekly at 5.10^4 cells/ml.
The P4 cells are HIV-infectible Hela-CD4 cells that carry the bacterial lacZ gene under the control of the HIV-1 long terminal repeat (LTR). In this cell line, transcription of the LacZ gene is driven by the HIV-1 LTR. As such, the cytoplasmic accumulation of β-galactosidase is strictly dependent on the presence of the HIV transactivator Tat produced during the intracellular viral replication (Clavel & Charneau, 1994. J. Virol., Vol. 68, p. 1179-1185). In other words, in this system, the expression level of the β-galactosidase gene is proportional to the viral replication.
as §2
The absorbance was measured on a Benchmark™ Microplate Reader (Biorad) (λ=570 nm) and compared with 12 cell control replicates (no virus or drug added) and 12 virus control wells (no drug added). Each assay was performed a minimum of three times. The 50% effective concentration (Ec50) was calculated from each dose response curve using the CurveExpert 1.3 software. As Nevirapine activity corresponds to its published values (10-100 nM), the data are consistent with other measures of viral replication.

Setting [5] is: P4 cell line, WT RT, read-out: EC50 WT.
Where [6] appears, read: Table 8, effect of the R2 substituent, cell line not given, read-out: EC50 WT.
Setting [7] is: Table 8, effect of the R2 substituent, cell line not given, read-out: EC50 Cys188RT.
The mark [8] stands for this setting: Human immunodeficiency virus 1, P4 cell line, WT RT, read-out: EC50 WT.

Like-named read-outs stand apart in the source and are kept apart here.

For orientation: EC50 means the concentration needed to bring the measured effect to its halfway point. What is called CC50 is the concentration that lowers cell viability or growth by half. For orientation: melting point means the temperature of the solid-liquid transition.

Turning to `CCOC(=O)c1c(OC2CC(C)CC(C)C2)c(CC)c(C)[nH]c1=O` (single isomer, unassigned) [Z37A], the “Relative (%) RT activity in vitro (compound added at 10 μM)” value (shortened to “Relative (%) RT activity in vitro”) in data set [1] came to 7.6%. Also, the EC50 in data set [2] (setting [5]) was 0.24 µM. This compound yielded a CC50 with P4 cells of 63 µM.
In turn, `CCOC(=O)c1c(OC(=O)C=C(C)C)c(CC)c(C)[nH]c1=O` [M18, ethyl 5-ethyl-6-methyl-4-[(3-methylbut-2-enoyl)oxy]-2-oxo-1,2-dihydropyridine-3-carboxylate] yielded a melting point of 166 °C. For the same compound, the “Relative (%) RT activity in vitro” value in data set [1] is listed as 70.8%. In data set [2] (Human immunodeficiency virus 1, read-out: EC50 WT), the EC50 was 5.82 µM. The “SI (selectivity index = CC50/EC50)” value in data set [2] (P4 cell line, WT RT) is reported as more than 17. The compound further registered a CC50 at 3 days in data set [3] of more than 100 µM.
With `CCOC(=O)c1c(OC2CCCCC2Cl)c(CC)c(C)[nH]c1=O` (stereo not shown) [Z12], the “Relative (%) RT activity in vitro” value in data set [1] is on record as 63.7%. The EC50 in data set [2] (setting [5]) was 3.09 µM. Also, the CC50 in the data set with P4 cells was more than 100 µM.
With `CCOC(=O)c1c(OC2CCCCCC2)c(CC)c(C)[nH]c1=O` [Z25], in data set [1], the “Relative (%) RT activity in vitro” value was 34.6%. The EC50 came to 0.48 µM in data set [2] (setting [5]), 0.48 µM in data set [2] (setting [6]) and 3.28 µM in data set [4] (setting [7]). For the same compound, in the data set on P4 cells, half-maximal cytotoxicity (CC50) was put at 81 µM. Moreover, the “activity on Cys188 mutant strains compared with the cyclohexyl derivative” value in data set [4] is reported as “more active on Cys188 mutant strains than the cyclohexyl derivative”.
Regarding `CCOC(=O)c1c(OC2CCCC(C)C2)c(CC)c(C)[nH]c1=O` (stereo not shown) [Z30], the “Relative (%) RT activity in vitro” value in data set [1] was 22.0%. In data set [2] (setting [5]), the EC50 amounted to 0.52 µM. In the data set with P4 cells, this compound came in with a CC50 of more than 100 µM.
`CCc1c(C)[nH]c(=O)c(CO)c1OC1CCCCCC1` [Z32, 4-(cycloheptyloxy)-3-(hydroxymethyl)-5-ethyl-6-methylpyridin-2(1H)-one] had a melting point of 146 °C. Moreover, the “Relative (%) RT activity in vitro” value in data set [1] turned out to be 44.0%. The EC50 in data set [2] (setting [8]) was found to be 1.16 µM. Also, the “SI (selectivity index = CC50/EC50)” value in data set [2] (P4 cell line, WT RT) came to 47. This compound had a CC50 at 3 days in data set [3] of 55 µM.
For `CCc1c(C)[nH]c(=O)c(COC(=O)CCl)c1OC1CCCCCC1` [Z33, [4-(cycloheptyloxy)-5-ethyl-6-methyl-2-oxo-1,2-dihydropyridin-3-yl]methyl chloroacetate], in that order: 123 °C, 42.0%, 1.03 µM, 52 and 54 µM.
For `CCOC(=O)c1c(OC2CC(C)CC(C)C2)c(CC)c(C)[nH]c1=O` (stereo not shown) [Z37, ethyl 4-[(3,5-dimethylcyclohexyl)oxy]-5-ethyl-6-methyl-pyridine-2(1H)-one-3-carboxylate], the melting point came out at 108 °C. Further, the “Relative (%) RT activity in vitro” value in data set [1] is 8.3%. The EC50 in data set [2] (setting [8]) came out at 0.043 µM. Further, the “SI (selectivity index = CC50/EC50)” value in data set [2] (P4 cell line, WT RT) is on record as 1349. In data set [3], this compound displayed a half-maximal cytotoxic concentration (CC50) at 3 days of 58 µM. Further, the “activity on Cys188 mutant strains compared with the cyclohexyl derivative” value in data set [4] is recorded as “more active on Cys188 mutant strains than the cyclohexyl derivative”. The EC50 in data set [4] (Human immunodeficiency virus 1, read-out: EC50 Cys188RT) is 0.006 µM.
On to `CCc1c(C)[nH]c(=O)c(C(=O)OCCN(CC)CC)c1OC1CC(C)CC(C)C1` (stereo not shown) [Z53], for which the “Relative (%) RT activity in vitro” value in data set [1] was determined as 34.3%.
Take `CCOC(=O)c1c(OC2CCCCCCC2)c(CC)c(C)[nH]c1=O` [Z54]: the “Relative (%) RT activity in vitro” value in data set [1] worked out at 24%. The EC50 in data set [2] (setting [5]) was 1.35 µM. Also, in the data set with P4 cells, the CC50 amounted to 58 µM.
Regarding `CCOC(=O)c1c(OC2CCC(CC)CC2)c(CC)c(C)[nH]c1=O` (stereo not shown) [Z55], the “Relative (%) RT activity in vitro” value in data set [1] stood at 40.3%.
Same read-out and setting: in the case of `CCc1c(C)[nH]c(=O)c(N)c1OC1CC(C)CC(C)C1` (stereo not shown) [Z96inv] it was 25.4%.
As to `CCOC(=O)c1c(OC2CCCC2)c(CC)c(C)[nH]c1=O` [reference compound], the EC50 in data set [2] (setting [6]) was 1.91 µM.
`CCOC(=O)c1c(OC2CCCCC2)c(CC)c(C)[nH]c1=O` [reference compound]: the EC50 in data set [2] (setting [6]) is 0.77 µM; in data set [4] (setting [7]) it was 6.5 µM.

The record behind these values is patent US20070275953A1 (priority 2003, published 2007).
